Reference: patent publication US20080292736A1, “Bioavailability enhancing activity of carum carvi extracts and fractions thereof” (COUNCIL OF SCIENTIFIC AND INDUSTRIAL RESEARCH, priority 2001, published 2008)
Where two headings read alike, the source gives them in different places.

Columns and labels:
[1] = Enhancement of bioavailability of drugs given to rats with bioenhancers (plasma drug level by HPLC); settings: for % Enhancement in bioavailability, BE from Carum carvi: drug with Carum carvi bioenhancer (aqueous or 50% alcoholic extract 30 mg/kg or Fraction No. 1 15 mg/kg), drug dose mg/kg
[2] = rat, in vivo; for % Enhancement in bioavailability, BE from Zingiber officinale: 35 mg/kg; for % Enhancement in bioavailability, Carum carvi (Cc) Extr.: 30 mg/kg
[3] = drug with piperine; background statement; cited from earlier work

Compound	% Enhancement in bioavailability, Carum carvi + Piperine [2]	% Enhancement in bioavailability, Carum carvi + Zingiber officinale [2]	% Enhancement in bioavailability, BE from Zingiber officinale [2]	% Enhancement in bioavailability, BE from Carum carvi [2]	bioenhancing effect of piperine on the drug [3]	other results
CCOC(=O)C1=C(COCCN)NC(C)=C(C(=O)OC)C1c1ccccc1Cl (centres unmarked) [Amlodipine]	50%	65%	68%	–	–	% Enhancement in bioavailability, BE from Carum carvi [1]: Nil
CCCNC(=O)NS(=O)(=O)c1ccc(Cl)cc1 [chlorpropamide]	–	–	–	–	does not enhance	–
CO[C@H]1/C=C/O[C@@]2(C)Oc3c(C)c(O)c4c(O)c(c(/C=N/N5CCN(C)CC5)c(O)c4c3C2=O)NC(=O)/C(C)=C\C=C\[C@H](C)[C@H](O)[C@@H](C)[C@@H](O)[C@@H](C)[C@H](OC(C)=O)[C@@H]1C [Rifampicin]	–	–	–	–	highly significant	% Enhancement in bioavailability, BE from Carum carvi [1]: 110%; % Enhancement in bioavailability, Carum carvi + Zingiber officinale ([1]; drug with Carum carvi bioenhancer and Zingiber officinale 35 mg/kg, drug dose as in row): 140%; % Enhancement in bioavailability, Carum carvi + Piperine ([1]; drug with Carum carvi bioenhancer and piperine 8 mg/kg, drug dose as in row): 170%; % Enhancement in bioavailability, BE from Zingiber officinale ([1]; drug with Zingiber officinale 50% alcoholic extract of fresh ginger 35 mg/kg, drug dose as in row): 65%; % Enhancement in bioavailability, Piperine as BE ([1]; drug with piperine 8 mg/kg, drug dose as in row): 45%
COc1cc(/C=C/C(=O)CC(=O)/C=C/c2ccc(O)c(OC)c2)ccc1O [Curcumin]	–	–	49%	–	–	% Enhancement in bioavailability, Carum carvi + Zingiber officinale, Extr. (Cc) [2]: 43%; % Enhancement in bioavailability, Carum carvi + Zingiber officinale, Frac 1. (Cc) [2]: 52%; % Enhancement in bioavailability, Carum carvi + piperine, Extr. (Cc) [2]: 42%; % Enhancement in bioavailability, Carum carvi + piperine, Frac 1. (Cc) [2]: 51%; % Enhancement in bioavailability, Carum carvi (Cc) Extr. [2]: 40%
Cc1onc(-c2ccccc2Cl)c1C(=O)N[C@@H]1C(=O)N2[C@@H]1SC(C)(C)[C@@H]2C(=O)O [Cloxacillin]	95%	110%	76%	110%	–	–
NCC[C@H](O)C(=O)N[C@@H]1C[C@H](N)[C@@H](O[C@H]2O[C@H](CN)[C@@H](O)[C@H](O)[C@H]2O)[C@H](O)[C@H]1O[C@H]1O[C@H](CO)[C@@H](O)[C@H](N)[C@H]1O [Amikacin]	100%	92%	Nil	85%	–	–
NCCCC[C@H](N)C(=O)O [Lysine]	–	–	19%	–	–	% Enhancement in bioavailability, Carum carvi + Zingiber officinale, Extr. (Cc) [2]: 39%; % Enhancement in bioavailability, Carum carvi + Zingiber officinale, Frac 1. (Cc) [2]: 43%; % Enhancement in bioavailability, Carum carvi + piperine, Extr. (Cc) [2]: 33%; % Enhancement in bioavailability, Carum carvi + piperine, Frac 1. (Cc) [2]: 38%; % Enhancement in bioavailability, Carum carvi (Cc) Extr. [2]: 26%
Nc1nc2c(ncn2COCCO)c(=O)[nH]1 [Acyclovir]	100%	90%	82%	78%	–	–

Second part, led by results:

% Enhancement in bioavailability, Carum carvi + Piperine [2]	% Enhancement in bioavailability, Carum carvi + Zingiber officinale [2]	% Enhancement in bioavailability, BE from Zingiber officinale [2]	% Enhancement in bioavailability, BE from Carum carvi [2]	Compound	bioenhancing effect of piperine on the drug [3]	other results
nil	nil	Nil	Nil	NNC(=O)c1ccncc1 [Isoniazid]	nil or marginal	–
50%	55%	Nil	45%	NC(=O)c1cnccn1 [Pyrazinamide]	nil or marginal	–
–	–	33%	–	Silymarin	–	% Enhancement in bioavailability, Carum carvi + Zingiber officinale, Extr. (Cc) [2]: 38%; % Enhancement in bioavailability, Carum carvi + Zingiber officinale, Frac 1. (Cc) [2]: 41%; % Enhancement in bioavailability, Carum carvi + piperine, Extr. (Cc) [2]: 36%; % Enhancement in bioavailability, Carum carvi + piperine, Frac 1. (Cc) [2]: 45%; % Enhancement in bioavailability, Carum carvi (Cc) Extr. [2]: 31%
nil	nil	Nil	Nil	CC[C@@H](CO)NCCN[C@@H](CC)CO [Ethambutol]	–	–
95%	98%	72%	65%	CC[C@H]1OC(=O)[C@H](C)[C@@H](O[C@H]2C[C@@](C)(OC)[C@@H](O)[C@H](C)O2)[C@H](C)[C@@H](O[C@@H]2O[C@H](C)C[C@H](N(C)C)[C@H]2O)[C@](C)(O)C[C@@H](C)/C(=N\OCOCCOC)[C@H](C)[C@@H](O)[C@]1(C)O [Roxythromycin]	–	–
